Experimental data published in the supplement of paper PMC10307832.

Columns and labels:
Experiment in all cases: relative viability (nuclei count vs DMSO), 5 days (fraction); higher = more cells survive
[1] = compound: C1=CC2=C(C=C(C(=C2N=C1)O)N=NC3=CC4=C(C=C3)C=C(C=C4)S(=O)(=O)O)S(=O)(=O)O + Cc1cc(Nc2cc(N3CCN(C)CC3)nc(Sc3ccc(NC(=O)C4CC4)cc3)n2)n[nH]1 [Tozasertib] (partner 0.1 µM)
How it was run: (§1)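 Lung cancer cell lines in 1536-well plates got either a single drug or a fixed anchor-drug dose together with five library-drug doses (not always all listed) in √10 steps, by pin tool, on the day after seeding. Nuclei were counted after 5 days, and relative viability is the treated-to-vehicle ratio of nuclei counts. Values are medians of duplicate plates.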

AT-7519 + Bortezomib = compound: O=C(NC1CCNCC1)c1n[nH]cc1NC(=O)c1c(Cl)cccc1Cl [AT-7519] + CC(C)C[C@H](NC(=O)[C@H](Cc1ccccc1)NC(=O)c1cnccn1)B(O)O [Bortezomib] (partner 0.002 µM)
How it was run: as §1

AT-7519 + Foretinib = compound: O=C(NC1CCNCC1)c1n[nH]cc1NC(=O)c1c(Cl)cccc1Cl [AT-7519] + COc1cc2c(Oc3ccc(NC(=O)C4(C(=O)Nc5ccc(F)cc5)CC4)cc3F)ccnc2cc1OCCCN1CCOCC1 [Foretinib] (partner 0.25 µM)
How it was run: as §1

AT-7519 + Linsitinib = compound: O=C(NC1CCNCC1)c1n[nH]cc1NC(=O)c1c(Cl)cccc1Cl [AT-7519] + C[C@]1(O)C[C@@H](c2nc(-c3ccc4ccc(-c5ccccc5)nc4c3)c3c(N)nccn32)C1 [Linsitinib] (partner 1 µM)
How it was run: as §1

Cell Line | relative viability ([1]; first compound 0.08 µM) | relative viability ([1]; first compound 0.253 µM) | relative viability ([1]; first compound 0.8 µM) | relative viability ([1]; first compound 2.53 µM) | relative viability ([1]; first compound 8 µM) | relative viability (AT-7519 + Bortezomib; first compound 0.01 µM) | relative viability (AT-7519 + Bortezomib; first compound 0.03162 µM) | relative viability (AT-7519 + Bortezomib; first compound 0.3162 µM) | relative viability (AT-7519 + Bortezomib; first compound 1 µM) | relative viability (AT-7519 + Foretinib; first compound 0.01 µM) | relative viability (AT-7519 + Foretinib; first compound 0.03162 µM) | relative viability (AT-7519 + Foretinib; first compound 0.3162 µM) | relative viability (AT-7519 + Foretinib; first compound 1 µM) | relative viability (AT-7519 + Linsitinib; first compound 0.01 µM) | relative viability (AT-7519 + Linsitinib; first compound 0.03162 µM) | relative viability (AT-7519 + Linsitinib; first compound 0.3162 µM) | relative viability (AT-7519 + Linsitinib; first compound 1 µM)
HCC-827 | 0.448 | 0.397 | 0.418 | 0.448 | 0.432 | 1.1 | 1.1 | 1.05 | 1.06 | 1.03 | 0.991 | 1.03 | 0.964 | 0.959 | 0.973 | 0.946 | 0.899
HOP-62 | 0.458 | 0.381 | 0.384 | 0.403 | 0.363 | 0.723 | 0.825 | 0.827 | 0.718 | 1.11 | 1.16 | 1.04 | 0.977 | 0.93 | 0.859 | 0.682 | 1.05
IA-LM | – | – | – | – | – | 0.927 | 0.979 | 0.781 | 0.302 | 1.25 | 1.53 | 1.08 | 0.918 | 0.765 | 0.491 | 0.442 | 0.548
LC-2-ad | 0.518 | 0.476 | 0.376 | 0.519 | 0.325 | 0.962 | 0.978 | 1.02 | 0.672 | 0.975 | 0.984 | 0.85 | 0.452 | 0.754 | 0.832 | 0.908 | 0.464
LCLC-97TM1 | 0.279 | 0.203 | 0.196 | 0.338 | 0.221 | 1.22 | 0.58 | 0.379 | 0.123 | 0.859 | 0.946 | 0.817 | 0.437 | 0.189 | 0.155 | 0.17 | 0.151
LCLC-103H | 0.514 | 0.504 | 0.457 | 0.477 | 0.501 | 1.01 | 1.05 | 1.07 | 1.2 | 0.773 | 0.704 | 0.879 | 0.677 | 0.955 | 1.04 | 1.1 | 1.13
LK-2 | 0.174 | 0.189 | 0.18 | 0.178 | 0.148 | – | – | – | – | 1.04 | 1.16 | – | 0.95 | 0.514 | 0.448 | 0.368 | 0.255
LOU-NH91 | 0.77 | 0.667 | 0.681 | 0.748 | 0.734 | 0.541 | 0.541 | 0.468 | 0.478 | 0.876 | 0.943 | 0.976 | 0.821 | 0.984 | 0.894 | 0.916 | 0.776
LU99A | 0.289 | 0.267 | 0.272 | 0.323 | 0.273 | 1.15 | 1.07 | 1.14 | 0.988 | 0.873 | 0.771 | 0.801 | 0.556 | 0.514 | 0.577 | 0.54 | 0.404
LXF-289 | 0.234 | 0.159 | 0.179 | 0.19 | 0.228 | 0.951 | 1.05 | 0.957 | 1.01 | 0.964 | 1 | 0.943 | 0.877 | 0.957 | 1.02 | 1.04 | 0.933
NCI-H358 | 0.126 | 0.0956 | 0.0998 | 0.103 | 0.102 | – | – | – | – | 0.646 | 0.496 | 0.492 | 0.194 | 0.733 | 0.592 | 0.347 | 0.157
NCI-H522 | 0.583 | 0.556 | 0.609 | 0.539 | 0.631 | – | – | – | – | – | – | – | – | – | – | – | –
NCI-H1299 | – | – | – | – | – | 1.05 | 0.996 | 1.05 | 1.28 | 1.13 | 1.06 | 1.1 | 1.15 | 1.1 | 0.96 | 0.946 | 0.645
NCI-H1395 | 0.788 | 0.739 | 0.695 | 0.745 | 0.772 | – | – | – | – | 0.991 | 1.12 | 0.961 | 0.786 | 1.12 | 1.01 | 0.978 | 0.603
NCI-H1563 | – | – | – | – | – | 0.874 | 0.905 | 0.901 | 0.85 | 0.846 | 0.867 | 0.948 | 0.957 | 1.2 | 1.25 | 1.25 | 1
NCI-H1648 | 0.432 | 0.422 | 0.615 | 0.533 | 0.507 | – | – | – | – | – | – | – | – | – | – | – | –
NCI-H1650 | 0.4 | 0.347 | 0.45 | 0.407 | 0.231 | 0.19 | 0.203 | 0.183 | 0.194 | 1.15 | 1.12 | 0.914 | 0.295 | – | – | – | –
NCI-H1703 | – | – | – | – | – | 0.392 | 0.323 | 0.182 | 0.151 | 0.335 | 0.317 | 0.353 | 0.331 | 0.854 | 0.835 | 0.379 | 0.149
NCI-H1792 | – | – | – | – | – | 0.752 | 0.89 | 0.882 | 0.888 | – | – | – | – | 0.291 | 0.358 | 0.441 | 0.444
NCI-H1793 | 0.436 | 0.301 | 0.395 | 0.449 | 0.396 | – | – | – | – | 0.679 | 0.646 | 0.726 | 0.488 | 1.06 | 0.945 | 0.74 | 0.684
NCI-H1944 | 0.263 | 0.241 | 0.263 | 0.241 | 0.237 | – | – | – | – | 0.899 | 0.855 | 0.84 | 0.662 | 1.16 | 1.02 | 1.12 | 1.13
NCI-H2170 | 0.678 | 0.714 | 0.753 | 0.774 | 0.638 | – | – | – | – | 1.09 | 1.03 | 1.04 | 0.958 | – | – | – | –
NCI-H2342 | 0.52 | 0.576 | 0.566 | 0.465 | 0.569 | – | – | – | – | 1.02 | 0.972 | 0.977 | 0.965 | – | – | – | –
SK-MES-1 | 1.01 | 0.888 | 0.804 | 0.924 | 0.935 | – | – | – | – | 0.907 | 1.09 | 0.735 | 0.919 | 1.08 | 0.958 | 1.08 | 0.953
SW 900 | 0.566 | 0.559 | 0.536 | 0.599 | 0.469 | – | – | – | – | 0.792 | 0.68 | 0.858 | 0.442 | – | – | – | –
